Source: patent US10828301B2, “2,4-pyrimidinediamine compounds and their uses” (Rigel Pharmaceuticals, Inc, priority 2002, dated 2020)
pIC50: −log10 of the molar value. Counter-ions that a name gives are not always drawn.

What was measured:
[1] = test system: cultured human mast cells (CHMC); test: CHMC low cell density IgE activation: tryptase and LTC4 assays; type: cell-based
Procedure: Pellet CHMC cells (980 rpm, 10 min) and resuspend in pre-warmed MT. Add 65 ul of cells to each 96-well plate. Depending on the degranulation activity for each particular CHMC donor, load 1000-1500 cells/well. Mix four times followed by a 1 hr incubation at 37° C. […] Stimulate cells by adding 25 ul of 6× anti-IgE solution to the appropriate plates. Add 25 ul MT to un-stimulated control wells. Mix twice following addition of the anti-IgE. Incubate at 37° C. for 30 minutes. […] Spin plates at 1000 rpm for 10 min to pellet cells. Transfer 25 ul of supernatant to a 96-well black bottom plate and add 100 ul of freshly diluted tryptase substrate solution to each well. Incubate plates at room temperature for 30 min.
Leukotriene C4 (LTC4) is also quantified using an ELISA kit on appropriately diluted supernatant samples (determined empirically for each donor cell population so that the sample measurement falls within the standard curve) following the supplier's instructions.

[2] = test system: cultured human mast cells (CHMC); test: CHMC low cell density ionomycin activation: tryptase assay; type: cell-based; conditions: Low Density CHMC, ionomycin activation, tryptase readout, read-out: CHMC Ionomycin Tryptase
[3] = Homo sapiens, Mast cell, Low Density CHMC, anti-IgE activation, tryptase readout, read-out: CHMC anti-IgE Tryptase
[4] = Homo sapiens, Mast cell, read-out: CHMC anti-IgE Tryptase
[5] = Low Density CHMC, anti-IgE activation, tryptase readout, read-out: CHMC anti-IgE Tryptase

| SMILES | pIC50 [1, 3] | other results |
| --- | --- | --- |
| CC(C)Oc1ccc(Nc2ncc(F)c(Nc3ccc(C(C)(C)CO)cc3)n2)cc1 [Compound R935168, 5-Fluoro-N4-[4-(2-hydroxy-1,1-dimethylethyl)phenyl]-N2-(4-isopropoxyphenyl)-2,4-pyrimidinediamine] | 6.31 | pIC50 ([2]; Homo sapiens, Mast cell): 5.02 |
| CCOc1ccc(Nc2ncc(F)c(Nc3ccc(OCC)cc3)n2)cc1 [Compound R070790, N2,N4-bis(4-ethoxyphenyl)-5-fluoro-2,4-pyrimidinediamine] | – | pIC50 ([2]; Homo sapiens, Mast cell): < 5.00 |
| CNC(=O)COc1cccc(Nc2ncc(F)c(Nc3ccc4c(c3)C(=O)CCC4)n2)c1 [Compound R926947, 5-Fluoro-N4-(1,2,3,4-tetrahydro-1-oxonaphthalen-7-yl)-N2-[3-[(N-methylamino)carbonylmethyleneoxy]phenyl]-2,4-pyrimidinediamine] | – | pIC50 [2]: < 5.00 |
| OCCOc1ccc(Nc2ncc(F)c(Nc3cccc(O)c3)n2)cc1 [Compound R935155, 5-Fluoro-N2-[4-(2-hydroxyethoxy)phenyl]-N4-(3-hydroxyphenyl)-2,4-pyrimidinediamine] | – | pIC50 ([2]; Homo sapiens, Mast cell): < 5.00 |
| CCOC(=O)c1cnc(Nc2ccc3c(c2)OCCO3)nc1Nc1ccc2c(c1)OCCO2 [Compound R926252, N2,N4-Bis(3,4-ethylenedioxyphenyl)-5-ethoxycarbonyl-2,4-pyrimidinediamine] | 5.55 | – |
| COc1cc(Nc2ncc(F)c(Nc3ccc(C(=O)O)c(OC)c3)n2)ccc1C(=O)O [Compound R945068, N2,N4-Bis(4-carboxy-3-methoxyphenyl)-5-fluoro-2,4-pyrimidinediamine] | < 5.00 | – |
| O=C(O)c1cc2cc(Nc3ncc(F)c(Nc4cccc(O)c4)n3)ccc2[nH]1 [Compound R926479, N2-(2-Carboxyindol-5-yl)-5-fluoro-N4-(3-hydroxyphenyl)-2,4-pyrimidinediamine] | < 5.00 | – |
| Cc1ccc(Nc2ncc(F)c(Nc3ccc(C)c([N+](=O)[O-])c3)n2)cc1[N+](=O)[O-] [Compound R950144, N2,N4-Bis(4-methyl-3-nitrophenyl)-5-fluoro-2,4-pyrimidinediamine] | – | pIC50 [1, 4]: 5.00 |
| CC(C)Oc1ccc(Nc2ncc(F)c(Nn3cccc3)n2)cc1 [Compound R935276, 5-Fluoro-N2-(4-isopropoxyphenyl)-N4-(1H-pyrrol-1-yl)-2,4-pyrimidinediamine] | 5.63 | – |
| CNC(=O)CNc1cccc(Nc2ncc(F)c(Nc3cccc(O)c3)n2)c1 [Compound R950218] | – | pIC50 [2]: < 5.00 |
| Nc1cc(Nc2ccnc(Nc3cc(N)cc(C(F)(F)F)c3)n2)cc(C(F)(F)F)c1 [Compound R950143, N2,N4-Bis(3-amino-5-trifluoromethylphenyl)-2,4-pyrimidinediamine] | 5.08 | – |
| Oc1cccc(Nc2ncc(F)c(Nc3ccc4ncccc4c3)n2)c1 [Compound R927019, 5-Fluoro-N2-(3-hydroxyphenyl)-N4-(quinolin-6-yl)-2,4-pyrimidinediamine] | 5.93 | – |
| Nc1c(F)ccc(Nc2ncc(F)c(Nc3ccc(F)c(N)c3F)n2)c1F [Compound R950138, N2,N4-Bis(3-amino-2,4-difluorophenyl)-5-fluoro-2,4-pyrimidinediamine] | 5.02 | – |
| O=C(O)Cc1cccc(Nc2ncc(F)c(Nc3cccc(CC(=O)O)c3)n2)c1 [Compound R935117] | – | pIC50 [1, 5]: < 5.00 |
| COC(=O)c1cc(Nc2ncc(F)c(Nc3ccc(OC(F)(F)F)c(C(=O)OC)c3)n2)ccc1OC(F)(F)F [Compound R950391, N2,N4-Bis(3-methoxycarbonyl-4-trifluoromethoxyphenyl)-5-fluoro-2,4-pyrimidinediamine] | – | pIC50 ([2]; Homo sapiens, Mast cell): < 5.00 |
| Nc1ccc(Nc2ncc(F)c(Nc3ccc(N)cc3)n2)cc1 [Compound R950121, N2,N4-Bis(4-aminophenyl)-5-fluoro-2,4-pyrimidinediamine Hydrogen Chloride Salt] | 5.37 | – |
| COc1ccc(CNc2ncc(F)c(Nc3ccc4c(c3)OCCO4)n2)cc1 [Compound R926230, N4-(3,4-Ethylenedioxyphenyl)-5-fluoro-N2-(4-methoxybenzyl)-2,4-pyrimidinediamine] | – | pIC50 ([1]; Homo sapiens, Mast cell, Low Density CHMC, anti-IgE activation, hexosaminidase readout, read-out: CHMC anti-IgE Hexos.): < 5.00 |
| CC(=O)c1cccc(Nc2ncc(F)c(Nc3cccc(C(C)=O)c3)n2)c1 [Compound R950376, N2,N4-Bis(3-methylcarbonylphenyl)-5-fluoro-2,4-pyrimidinediamine] | 5.60 | – |
| CN1C(=O)COc2ccc(Nc3nc(Nc4cccc(O)c4)ncc3F)cc21 [Compound R908709, 5-Fluoro-N2-(3-hydroxyphenyl)-N4-(N-methyl-1,4-benzoxazin-3-on-6-yl)-2,4-pyrimidinediamine] | 5.62 | – |

| SMILES | pIC50 [1, 3] | other results |
| --- | --- | --- |
| Cc1onc(-c2ccccc2)c1Nc1ncc(F)c(Nc2ccc3c(c2)OCCO3)n1 [Compound R926743, N4-(3,4-Ethylenedioxyphenyl)-5-fluoro-N2-(3-phenyl-5-methylisoxazol-4-yl)-2,4-pyrimidinediamine] | < 5.00 | – |
| Nc1c(F)ccc(Nc2ccnc(Nc3ccc(F)c(N)c3F)n2)c1F [Compound R950131, N2,N4-Bis(3-amino-2,4-difluorophenyl)-2,4-pyrimidinediamine] | < 5.00 | – |
| O=C(O)c1cc2cc(Nc3ncc(F)c(Nc4ccc5c(c4)OCCO5)n3)ccc2o1 [Compound R926698, N4-(3,4-Ethylenedioxyphenyl)-5-fluoro-N2-(2-carboxybenzofuran-5-yl)-2,4-pyrimidinediamine] | < 5.00 | – |
| CCOC(=O)CNc1cccc(Nc2ncc(F)c(Nc3cccc(O)c3)n2)c1 [Compound R950216] | – | pIC50 [1, 5]: 6.49 |
| OC(CNc1ncc(F)c(NCC(O)c2ccccc2)n1)c1ccccc1 (stereo not drawn) [Compound R925768, N2,N4-Bis(2-hydroxy-2-phenylethyl)-5-fluoro-2,4-pyrimidinediamine] | < 5.00 | – |
| CCOC(=O)C1CCN(C(=O)c2cccc(Nc3ncc(F)c(Nc4ccc5cc[nH]c5c4)n3)c2)CC1 [Compound R926935, N2-[3-[[4-(Ethoxycarbonyl)piperidino]carbonyl]phenyl]-5-fluoro-N4-[(1H)-indol-6-yl]-2,4-pyrimidinediamine] | 5.35 | – |
| CCOC1CCCc2ccc(Nc3nc(Nc4cccc(O)c4)ncc3F)cc21 (stereo not drawn) [Compound R926942, N4-(1-Ethoxy-1,2,3,4-tetrahydronaphthalen-7-yl)-5-fluoro-N2-(3-hydroxyphenyl)-2,4-pyrimidinediamine] | 5.32 | – |
| O=[N+]([O-])c1cc(Nc2ccnc(Nc3ccc(F)c([N+](=O)[O-])c3)n2)ccc1F [Compound R950152, N2,N4-Bis(4-fluoro-3-nitrophenyl)-2,4-pyrimidinediamine] | – | pIC50 [1, 4]: 5.00 |
| CCOC(=O)C1CCN(C(=O)c2cccc(Nc3ncc(F)c(Nc4cccc(O)c4)n3)c2)CC1 [Compound R926939, N2-[3-[[4-(Ethoxycarbonyl)piperidino]carbonyl]phenyl]-5-fluoro-N4-(3-hydroxyphenyl)-2,4-pyrimidinediamine] | 5.44 | – |
| Cc1ccc(N)cc1Nc1ncc(F)c(Nc2cc(N)ccc2C)n1 [Compound R950157, N2,N4-Bis(5-amino-2-methylphenyl)-5-fluoro-2,4-pyrimidinediamine] | < 5.00 | – |
| COc1ccc(Nc2nc(Nc3cccc(O)c3)ncc2F)c(OC)n1 [Compound R926887, N4-(2,6-Dimethoxypyridin-3-yl)-5-fluoro-N2-(3-hydroxyphenyl)-2,4-pyrimidinediamine] | 5.76 | – |
| Cc1ccc(CNc2ncc(F)c(Nc3ccc4c(c3)OCCO4)n2)cc1Cl [Compound R908696, N2-(3-chloro-4-methylbenzyl)-N4-(3,4-ethylenedioxyphenyl)-5-fluoro-2,4-pyrimidinediamine] | 5.45 | – |
| COC(=O)c1cc2cc(Nc3ncc(F)c(Nc4ccc(OC)c(Cl)c4)n3)ccc2o1 [Compound R926950, N4-(3-Chloro-4-methoxyphenyl)-5-fluoro-N2-[2-(methoxycarbonyl)benzofuran-5-yl]-2,4-pyrimidinediamine] | – | pIC50 ([2]; Homo sapiens, Mast cell): < 5.00 |
| Oc1cccc(Nc2ncc(F)c(Nc3ccc(Cl)nc3)n2)c1 [Compound R927018, N4-(6-Chloropyridin-3-yl)-5-fluoro-N2-(3-hydroxyphenyl)-2,4-pyrimidinediamine] | 5.84 | – |
| CNC(=O)Cn1ncc2cc(Nc3ncc(F)c(Nc4ccc(OC(C)C)cc4)n3)ccc21 [Compound R935239, 5-Fluoro-N4-(4-isopropoxyphenyl)-N2-[1-(N-methylaminocarbonyl)methyl-indazoline-5-yl]-2,4-pyrimidinediamine] | – | pIC50 [2]: < 5.00 |
| Cc1ccc(Nc2nc(Nc3cccc(O)c3)ncc2F)nc1 [Compound R927017, 5-Fluoro-N2-(3-hydroxyphenyl)-N4-(5-methylpyridin-2-yl)-2,4-pyrimidinediamine] | 5.61 | – |
| COC(=O)c1cc(Nc2ncc(F)c(Nc3ccc(OC)c(C(=O)OC)c3)n2)ccc1OC [Compound R945066, N2,N4-Bis(4-methoxy-3-methoxycarbonylphenyl)-5-fluoro-2,4-pyrimidinediamine] | 5.28 | – |
| CC(C)(CO)c1ccc(Nc2nc(Nc3ccc4c(c3)OCCO4)ncc2F)cc1 [Compound R935149, N2-(3,4-Ethylenedioxyphenyl)-N4-[4-(2-hydroxy-1,1-dimethylethyl)phenyl]-5-fluoro-2,4-pyrimidinediamine] | 6.15 | – |
| COc1ccc([N+](=O)[O-])cc1Nc1ncc(F)c(Nc2cc([N+](=O)[O-])ccc2OC)n1 [Compound R950151, N2,N4-Bis(2-methoxy-5-nitrophenyl)-5-fluoro-2,4-pyrimidinediamine] | – | pIC50 [1, 4]: < 5.00 |
